{"source": "patent US20260234159A1", "about": "“SMALL MOLECULE TREATMENT OF FATTY LIVER DISEASE AND HCC” (SCANDIEDGE THERAPEUTICS AB, priority 2023, published 2026)", "key": {"[1]": {"tested_on": "JNK1/2/3", "test": "Western blot, JNK1/2/3 P54 and p46 isoforms", "assay_type": "cell-based, human", "conditions": "10 μM, 2 days", "procedure": "HepG2 cells were seeded into a 6-well plate at 400,000 cells per well. After treatment with 10 μM of JNK-IN-5A and its derivatives for two days, lysates were harvested with CelLytic M (C2978, Sigma-Aldrich). […] SDS PAGE were performed using Mini-PROTEAN® TGX™ Precast Gels (Bio-Rad) and transferred using Trans-Blot® Turbo™ Transfer System (Bio-Rad). […] ImageQuantTMLAS 500 (29-0050-63, GE) was used to detect protein bands."}, "[2]": {"test": "In vivo toxicological study in rats: haematology", "design": "species or system rats of the Wistar strain", "procedure": "Forty-two male and forty-two female rats of the Wistar strain were allocated to the study. Three groups of three males and three females were given doses of 30, 100 and 300 mg/kg of target compounds (Table 8). The vehicle was 1.5 w/w % HPMC, 1.5 w/w % PS80 in 10 mM PBS, pH 7 and dose volume were 5 mL/kg. The animals were acclimatised at least 14 day prior to the study and exposed to a 12 hours light, 12 hours dark light cycle. The formulations were administered via oral gavage. Administration occurred once daily in the morning for seven consecutive days. Blood for scheduled haematology and plasma chemistry were taken at necropsy. For plasma chemistry, 0.6 ml blood (lithium heparin) per animal and for haematology, 0.5 ml blood (K2EDTA) per animal. The blood and plasma were analysed using Exigo analyzer and Vetscan equipment. Blood was analysed within 60 min of sampling. On the morning of analysis, the Exigo analyzer was checked against a reference sample provided by the manufacturer, and a control sample analysis cycle was performed (Table 9)."}, "[3]": {"tested_on": "HepG2 cells", "test": "Invasion assay (transwell)", "assay_type": "cell-based, human", "conditions": "Homo sapiens, HepG2, 24 hr, read-out: invasiveness reduced by", "procedure,_shortened": "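HepG2 cells (100,000) in serum-free medium with compounds placed on collagen-coated 8 μm transwell membranes, with 10% FBS medium below as attractant. After one day at 37 °C, cells fixed in formaldehyde and stained with crystal violet. Invaded cells on the outer membrane imaged and counted.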"}, "[4]": {"test": "In vivo toxicological study in rats: clinical observations and body weight", "conditions": "300 mg/kg oral administration", "procedure": "Forty-two male and forty-two female rats of the Wistar strain were allocated to the study. Three groups of three males and three females were given doses of 30, 100 and 300 mg/kg of target compounds (Table 8). The vehicle was 1.5 w/w % HPMC, 1.5 w/w % PS80 in 10 mM PBS, pH 7 and dose volume were 5 mL/kg.\nThe animals were acclimatised at least 14 day prior to the study and exposed to a 12 hours light, 12 hours dark light cycle. The formulations were administered via oral gavage. Administration occurred once daily in the morning for seven consecutive days.\nA check of animal health and welfare status was done at least once on working days and weekend days.\nBody weights were recorded the week before and within 24 hours before start of dosing, on Day 3 and on necropsy Day 8."}, "[5]": {"conditions": "female, 30 mg/kg oral daily 7 d"}, "[6]": {"conditions": "female, 100 mg/kg oral daily 7 d"}, "[7]": {"conditions": "female, 300 mg/kg oral daily 7 d"}}, "data": [{"smiles": "COc1ccc(C(=O)Nc2sc3c(c2C#N)CCCCC3)cc1OC", "note": "[PKL-A135, N-(3-cyano-5,6,7,8-tetrahydro-4H-cyclohepta[b]thiophen-2-yl)-3,4-dimethoxy-benzamide]", "values": [{"measurement": "JNK1/2/3 p46 expression", "setting": "[1]", "result": 0.77, "unit": "times"}, {"measurement": "GRAN", "setting": "[2]; [5]", "result": "0.97 10^9/l"}, {"measurement": "HCT", "setting": "[2]; [5]", "result": 41.7, "unit": "%"}, {"measurement": "HGB", "setting": "[2]; [5]", "result": 14.2, "unit": "g/dL"}, {"measurement": "LYM", "setting": "[2]; [5]", "result": "5.4 10^9/l"}, {"measurement": "MCH", "setting": "[2]; [5]", "result": 19.5, "unit": "pg"}, {"measurement": "MCHC", "setting": "[2]; [5]", "result": 34.1, "unit": "g/dL"}, {"measurement": "MCV", "setting": "[2]; [5]", "result": 57.4, "unit": "fL"}, {"measurement": "MONO", "setting": "[2]; [5]", "result": "0.17 10^9/l"}, {"measurement": "PLT", "setting": "[2]; [5]", "result": "1014 10^9/l"}, {"measurement": "RBC", "setting": "[2]; [5]", "result": "7.26 10^12/l"}, {"measurement": "RDW %", "setting": "[2]; [5]", "result": 14.2, "unit": "%"}, {"measurement": "WBC", "setting": "[2]; [5]", "result": "6.6 10^9/l"}, {"measurement": "GRAN", "setting": "[2]; [6]", "result": "1.33 10^9/l"}, {"measurement": "HCT", "setting": "[2]; [6]", "result": 42.1, "unit": "%"}, {"measurement": "HGB", "setting": "[2]; [6]", "result": 14.4, "unit": "g/dL"}, {"measurement": "LYM", "setting": "[2]; [6]", "result": "6.7 10^9/l"}, {"measurement": "MCH", "setting": "[2]; [6]", "result": 19.9, "unit": "pg"}, {"measurement": "MCHC", "setting": "[2]; [6]", "result": 34.1, "unit": "g/dL"}, {"measurement": "MCV", "setting": "[2]; [6]", "result": 58.4, "unit": "fL"}, {"measurement": "MONO", "setting": "[2]; [6]", "result": "0.27 10^9/l"}, {"measurement": "PLT", "setting": "[2]; [6]", "result": "978 10^9/l"}, {"measurement": "RBC", "setting": "[2]; [6]", "result": "7.21 10^12/l"}, {"measurement": "RDW %", "setting": "[2]; [6]", "result": 13.7, "unit": "%"}, {"measurement": "WBC", "setting": "[2]; [6]", "result": "8.3 10^9/l"}, {"measurement": "GRAN", "setting": "[2]; [7]", "result": "1.10 10^9/l"}, {"measurement": "HCT", "setting": "[2]; [7]", "result": 42.8, "unit": "%"}, {"measurement": "HGB", "setting": "[2]; [7]", "result": 14.7, "unit": "g/dL"}, {"measurement": "LYM", "setting": "[2]; [7]", "result": "5.1 10^9/l"}, {"measurement": "MCH", "setting": "[2]; [7]", "result": 20.8, "unit": "pg"}, {"measurement": "MCHC", "setting": "[2]; [7]", "result": 34.2, "unit": "g/dL"}, {"measurement": "MCV", "setting": "[2]; [7]", "result": 60.8, "unit": "fL"}, {"measurement": "MONO", "setting": "[2]; [7]", "result": "0.20 10^9/l"}, {"measurement": "PLT", "setting": "[2]; [7]", "result": "1011 10^9/l"}, {"measurement": "RBC", "setting": "[2]; [7]", "result": "7.04 10^12/l"}, {"measurement": "RDW %", "setting": "[2]; [7]", "result": 13.8, "unit": "%"}, {"measurement": "WBC", "setting": "[2]; [7]", "result": "6.4 10^9/l"}, {"measurement": "GRAN", "setting": "[2]; male, 30 mg/kg oral daily 7 d", "result": "1.83 10^9/l"}, {"measurement": "HCT", "setting": "[2]; male, 30 mg/kg oral daily 7 d", "result": 44.3, "unit": "%"}, {"measurement": "HGB", "setting": "[2]; male, 30 mg/kg oral daily 7 d", "result": 15, "unit": "g/dL"}, {"measurement": "LYM", "setting": "[2]; male, 30 mg/kg oral daily 7 d", "result": "6.5 10^9/l"}, {"measurement": "MCH", "setting": "[2]; male, 30 mg/kg oral daily 7 d", "result": 19.7, "unit": "pg"}, {"measurement": "MCHC", "setting": "[2]; male, 30 mg/kg oral daily 7 d", "result": 33.9, "unit": "g/dL"}, {"measurement": "MCV", "setting": "[2]; male, 30 mg/kg oral daily 7 d", "result": 58.2, "unit": "fL"}, {"measurement": "MONO", "setting": "[2]; male, 30 mg/kg oral daily 7 d", "result": "0.30 10^9/l"}, {"measurement": "PLT", "setting": "[2]; male, 30 mg/kg oral daily 7 d", "result": "841 10^9/l"}, {"measurement": "RBC", "setting": "[2]; male, 30 mg/kg oral daily 7 d", "result": "7.62 10^12/l"}, {"measurement": "RDW %", "setting": "[2]; male, 30 mg/kg oral daily 7 d", "result": 14.1, "unit": "%"}, {"measurement": "WBC", "setting": "[2]; male, 30 mg/kg oral daily 7 d", "result": "8.6 10^9/l"}, {"measurement": "GRAN", "setting": "[2]; male, 100 mg/kg oral daily 7 d", "result": "1.17 10^9/l"}, {"measurement": "HCT", "setting": "[2]; male, 100 mg/kg oral daily 7 d", "result": 43.2, "unit": "%"}, {"measurement": "HGB", "setting": "[2]; male, 100 mg/kg oral daily 7 d", "result": 14.6, "unit": "g/dL"}, {"measurement": "LYM", "setting": "[2]; male, 100 mg/kg oral daily 7 d", "result": "6.1 10^9/l"}, {"measurement": "MCH", "setting": "[2]; male, 100 mg/kg oral daily 7 d", "result": 19.6, "unit": "pg"}, {"measurement": "MCHC", "setting": "[2]; male, 100 mg/kg oral daily 7 d", "result": 33.7, "unit": "g/dL"}, {"measurement": "MCV", "setting": "[2]; male, 100 mg/kg oral daily 7 d", "result": 58.1, "unit": "fL"}, {"measurement": "MONO", "setting": "[2]; male, 100 mg/kg oral daily 7 d", "result": "0.17 10^9/l"}, {"measurement": "PLT", "setting": "[2]; male, 100 mg/kg oral daily 7 d", "result": "815 10^9/l"}, {"measurement": "RBC", "setting": "[2]; male, 100 mg/kg oral daily 7 d", "result": "7.43 10^12/l"}, {"measurement": "RDW %", "setting": "[2]; male, 100 mg/kg oral daily 7 d", "result": 14.4, "unit": "%"}, {"measurement": "WBC", "setting": "[2]; male, 100 mg/kg oral daily 7 d", "result": "7.4 10^9/l"}, {"measurement": "GRAN", "setting": "[2]; male, 300 mg/kg oral daily 7 d", "result": "1.13 10^9/l"}, {"measurement": "HCT", "setting": "[2]; male, 300 mg/kg oral daily 7 d", "result": 43.8, "unit": "%"}, {"measurement": "HGB", "setting": "[2]; male, 300 mg/kg oral daily 7 d", "result": 14.9, "unit": "g/dL"}, {"measurement": "LYM", "setting": "[2]; male, 300 mg/kg oral daily 7 d", "result": "6.2 10^9/l"}, {"measurement": "MCH", "setting": "[2]; male, 300 mg/kg oral daily 7 d", "result": 20.7, "unit": "pg"}, {"measurement": "MCHC", "setting": "[2]; male, 300 mg/kg oral daily 7 d", "result": 34, "unit": "g/dL"}, {"measurement": "MCV", "setting": "[2]; male, 300 mg/kg oral daily 7 d", "result": 60.9, "unit": "fL"}, {"measurement": "MONO", "setting": "[2]; male, 300 mg/kg oral daily 7 d", "result": "0.20 10^9/l"}, {"measurement": "PLT", "setting": "[2]; male, 300 mg/kg oral daily 7 d", "result": "924 10^9/l"}, {"measurement": "RBC", "setting": "[2]; male, 300 mg/kg oral daily 7 d", "result": "7.20 10^12/l"}, {"measurement": "RDW %", "setting": "[2]; male, 300 mg/kg oral daily 7 d", "result": 14.0, "unit": "%"}, {"measurement": "WBC", "setting": "[2]; male, 300 mg/kg oral daily 7 d", "result": "7.5 10^9/l"}, {"measurement": "inhibition at 1 µM", "setting": "[3]", "result": 29.5, "unit": "%"}, {"measurement": "tolerability (adverse clinical signs, body weight, clinical pathology parameters)", "setting": "[4]", "result": "well tolerated"}]}]}
